{"source": "ChEMBL document CHEMBL3864133", "about": "“Discovery of a Potent and Selective in Vivo Probe (GNE-272) for the Bromodomains of CBP/EP300” (J Med Chem, 2016)", "key": {"[1]": {"assay": "Antitumor activity against human MOLM16 cells xenografted in SCID beige mouse assessed as tumor growth inhibition at 25 mg/kg, po BID administered through gavage for 21 days", "format": "functional", "details": "read-out: TGI"}, "[2]": {"biological_target": "T1, CREB-binding protein/Histone acetyltransferase p300 (Homo sapiens, UniProt Q09472+Q92793)", "T1 sequence (Q09472 whole entry, looked up)": "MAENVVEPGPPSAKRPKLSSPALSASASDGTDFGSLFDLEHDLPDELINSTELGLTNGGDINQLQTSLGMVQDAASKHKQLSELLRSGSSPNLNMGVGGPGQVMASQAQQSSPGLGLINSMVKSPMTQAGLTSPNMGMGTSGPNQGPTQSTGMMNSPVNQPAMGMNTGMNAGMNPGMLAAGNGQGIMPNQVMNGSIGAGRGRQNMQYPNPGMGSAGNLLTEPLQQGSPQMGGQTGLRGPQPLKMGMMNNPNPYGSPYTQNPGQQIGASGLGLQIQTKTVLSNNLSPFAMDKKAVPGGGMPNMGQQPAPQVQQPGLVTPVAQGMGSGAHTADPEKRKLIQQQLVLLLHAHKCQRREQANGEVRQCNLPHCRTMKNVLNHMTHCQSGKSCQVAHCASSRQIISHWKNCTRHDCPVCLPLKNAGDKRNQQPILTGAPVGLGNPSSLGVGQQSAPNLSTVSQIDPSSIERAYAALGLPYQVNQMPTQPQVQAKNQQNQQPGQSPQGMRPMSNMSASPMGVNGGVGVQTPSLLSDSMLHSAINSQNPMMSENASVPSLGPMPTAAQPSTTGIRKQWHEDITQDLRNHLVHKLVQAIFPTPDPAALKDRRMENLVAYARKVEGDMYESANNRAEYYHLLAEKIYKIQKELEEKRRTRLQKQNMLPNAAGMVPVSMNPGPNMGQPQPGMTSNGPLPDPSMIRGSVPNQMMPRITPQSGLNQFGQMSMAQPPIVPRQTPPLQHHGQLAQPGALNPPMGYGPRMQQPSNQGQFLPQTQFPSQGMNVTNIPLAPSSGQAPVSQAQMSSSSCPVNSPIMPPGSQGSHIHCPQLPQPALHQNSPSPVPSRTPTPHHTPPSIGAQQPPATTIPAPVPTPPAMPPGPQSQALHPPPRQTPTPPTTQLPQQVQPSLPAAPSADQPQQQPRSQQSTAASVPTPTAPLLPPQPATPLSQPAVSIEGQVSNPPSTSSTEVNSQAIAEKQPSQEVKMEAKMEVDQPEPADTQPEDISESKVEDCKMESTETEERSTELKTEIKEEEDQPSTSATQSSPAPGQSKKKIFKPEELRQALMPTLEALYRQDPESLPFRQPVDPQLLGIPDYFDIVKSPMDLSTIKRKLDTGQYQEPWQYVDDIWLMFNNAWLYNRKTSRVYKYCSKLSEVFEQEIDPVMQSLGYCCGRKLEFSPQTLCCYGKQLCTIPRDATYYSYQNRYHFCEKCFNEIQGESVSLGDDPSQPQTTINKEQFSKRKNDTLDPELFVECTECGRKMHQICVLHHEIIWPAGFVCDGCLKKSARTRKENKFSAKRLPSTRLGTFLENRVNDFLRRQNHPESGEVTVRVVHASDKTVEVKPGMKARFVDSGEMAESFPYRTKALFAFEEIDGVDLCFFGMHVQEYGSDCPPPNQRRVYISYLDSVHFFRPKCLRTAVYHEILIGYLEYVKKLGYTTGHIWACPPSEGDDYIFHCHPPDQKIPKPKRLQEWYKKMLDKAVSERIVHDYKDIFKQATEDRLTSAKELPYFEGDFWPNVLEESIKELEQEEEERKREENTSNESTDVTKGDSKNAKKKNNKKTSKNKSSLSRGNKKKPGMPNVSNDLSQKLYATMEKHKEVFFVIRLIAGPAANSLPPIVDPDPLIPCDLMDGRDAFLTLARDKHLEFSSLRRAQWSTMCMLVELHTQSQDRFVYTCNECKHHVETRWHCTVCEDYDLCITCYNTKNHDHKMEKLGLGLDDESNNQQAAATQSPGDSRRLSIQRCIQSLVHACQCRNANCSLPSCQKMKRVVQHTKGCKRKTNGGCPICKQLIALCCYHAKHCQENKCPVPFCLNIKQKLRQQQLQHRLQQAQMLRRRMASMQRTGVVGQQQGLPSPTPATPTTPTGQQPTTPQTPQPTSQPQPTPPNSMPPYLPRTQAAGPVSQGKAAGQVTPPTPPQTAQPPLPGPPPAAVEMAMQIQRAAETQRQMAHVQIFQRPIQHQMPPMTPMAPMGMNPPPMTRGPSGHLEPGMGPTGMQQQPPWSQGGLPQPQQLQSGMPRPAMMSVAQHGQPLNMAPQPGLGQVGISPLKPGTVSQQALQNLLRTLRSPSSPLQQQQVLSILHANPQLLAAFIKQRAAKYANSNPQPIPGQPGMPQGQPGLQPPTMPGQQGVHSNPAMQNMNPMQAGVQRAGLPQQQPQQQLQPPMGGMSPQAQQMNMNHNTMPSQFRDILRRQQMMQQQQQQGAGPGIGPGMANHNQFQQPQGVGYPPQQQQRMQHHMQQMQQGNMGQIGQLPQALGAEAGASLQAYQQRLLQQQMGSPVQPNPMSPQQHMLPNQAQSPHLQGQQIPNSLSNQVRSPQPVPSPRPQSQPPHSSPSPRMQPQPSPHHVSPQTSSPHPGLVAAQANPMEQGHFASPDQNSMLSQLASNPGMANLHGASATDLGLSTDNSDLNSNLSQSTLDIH", "T1 sequence (Q92793 whole entry, looked up)": "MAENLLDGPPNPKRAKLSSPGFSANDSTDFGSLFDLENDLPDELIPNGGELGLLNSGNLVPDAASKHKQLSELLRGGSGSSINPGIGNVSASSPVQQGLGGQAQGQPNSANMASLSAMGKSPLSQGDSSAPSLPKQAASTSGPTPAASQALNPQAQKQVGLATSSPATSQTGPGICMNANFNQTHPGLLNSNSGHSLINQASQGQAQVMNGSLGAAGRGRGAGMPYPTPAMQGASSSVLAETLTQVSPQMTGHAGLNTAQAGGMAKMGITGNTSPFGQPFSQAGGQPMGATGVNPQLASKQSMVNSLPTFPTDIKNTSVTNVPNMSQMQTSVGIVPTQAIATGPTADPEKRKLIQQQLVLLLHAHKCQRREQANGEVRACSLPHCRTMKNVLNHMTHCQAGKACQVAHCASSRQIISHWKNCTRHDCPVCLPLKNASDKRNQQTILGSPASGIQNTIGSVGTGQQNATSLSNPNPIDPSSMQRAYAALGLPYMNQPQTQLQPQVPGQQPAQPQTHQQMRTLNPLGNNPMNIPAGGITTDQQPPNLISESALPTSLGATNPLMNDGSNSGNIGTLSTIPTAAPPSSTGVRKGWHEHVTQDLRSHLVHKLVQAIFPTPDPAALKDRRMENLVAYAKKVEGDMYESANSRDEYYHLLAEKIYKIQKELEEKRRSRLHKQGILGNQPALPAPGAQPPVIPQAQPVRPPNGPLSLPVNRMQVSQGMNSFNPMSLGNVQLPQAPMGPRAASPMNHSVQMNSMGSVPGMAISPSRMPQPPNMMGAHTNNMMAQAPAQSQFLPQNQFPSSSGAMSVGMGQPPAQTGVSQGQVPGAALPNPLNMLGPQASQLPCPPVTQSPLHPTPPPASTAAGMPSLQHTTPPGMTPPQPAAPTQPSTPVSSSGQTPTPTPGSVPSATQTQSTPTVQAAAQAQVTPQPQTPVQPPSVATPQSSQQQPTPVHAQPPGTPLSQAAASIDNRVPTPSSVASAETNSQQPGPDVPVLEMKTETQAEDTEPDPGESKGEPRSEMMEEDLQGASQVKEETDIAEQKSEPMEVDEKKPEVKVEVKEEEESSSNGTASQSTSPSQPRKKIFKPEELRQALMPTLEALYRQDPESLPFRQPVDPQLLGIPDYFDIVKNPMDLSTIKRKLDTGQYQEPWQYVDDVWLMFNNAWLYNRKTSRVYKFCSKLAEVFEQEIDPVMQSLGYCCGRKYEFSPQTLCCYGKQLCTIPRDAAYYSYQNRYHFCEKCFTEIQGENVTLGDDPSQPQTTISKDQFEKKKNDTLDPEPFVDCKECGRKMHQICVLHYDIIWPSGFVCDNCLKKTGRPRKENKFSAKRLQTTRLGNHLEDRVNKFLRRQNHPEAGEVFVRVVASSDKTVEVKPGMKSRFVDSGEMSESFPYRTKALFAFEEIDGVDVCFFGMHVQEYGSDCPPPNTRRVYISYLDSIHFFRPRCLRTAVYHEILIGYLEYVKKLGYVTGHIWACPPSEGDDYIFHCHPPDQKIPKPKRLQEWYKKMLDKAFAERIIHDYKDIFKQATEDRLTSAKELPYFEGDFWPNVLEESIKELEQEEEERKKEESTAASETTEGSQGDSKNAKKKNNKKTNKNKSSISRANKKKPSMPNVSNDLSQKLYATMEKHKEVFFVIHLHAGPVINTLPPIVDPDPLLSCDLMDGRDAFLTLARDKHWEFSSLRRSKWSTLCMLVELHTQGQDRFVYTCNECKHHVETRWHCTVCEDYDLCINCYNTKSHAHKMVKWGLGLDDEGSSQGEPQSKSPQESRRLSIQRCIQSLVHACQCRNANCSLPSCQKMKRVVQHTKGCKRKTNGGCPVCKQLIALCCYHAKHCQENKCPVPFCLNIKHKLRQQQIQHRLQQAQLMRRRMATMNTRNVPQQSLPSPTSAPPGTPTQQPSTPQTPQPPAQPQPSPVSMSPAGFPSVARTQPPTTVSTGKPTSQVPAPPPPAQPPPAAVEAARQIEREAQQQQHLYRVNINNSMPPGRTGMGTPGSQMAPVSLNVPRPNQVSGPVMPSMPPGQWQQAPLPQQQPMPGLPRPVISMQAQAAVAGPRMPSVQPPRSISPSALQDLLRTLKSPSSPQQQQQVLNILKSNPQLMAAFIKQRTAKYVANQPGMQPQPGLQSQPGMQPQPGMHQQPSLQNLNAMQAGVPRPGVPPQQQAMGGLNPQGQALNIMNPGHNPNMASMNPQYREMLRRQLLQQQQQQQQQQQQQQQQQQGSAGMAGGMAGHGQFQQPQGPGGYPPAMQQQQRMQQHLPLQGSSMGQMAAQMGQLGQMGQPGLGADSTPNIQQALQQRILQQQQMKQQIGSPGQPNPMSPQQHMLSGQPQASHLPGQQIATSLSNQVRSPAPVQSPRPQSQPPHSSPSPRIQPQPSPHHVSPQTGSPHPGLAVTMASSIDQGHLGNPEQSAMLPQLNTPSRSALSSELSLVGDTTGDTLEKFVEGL", "assay": "Inhibition of CBP/EP300 in human LP-1 cells assessed as decrease in MYC expression at 5 uM measured after 4 hrs by RT-PCR analysis relative to DMSO control", "format": "cell-based"}, "[3]": {"assay": "Clearance in nu/nu mouse at 1 mg/kg, iv by LC-MS/MS analysis", "format": "ADME, organism-based", "details": "in vivo"}, "Cytochrome P450 3A4 [4]": {"biological_target": "T2, Cytochrome P450 3A4 (Homo sapiens, UniProt P08684)", "assay": "Inhibition of CYP3A4 in human liver microsomes assessed as formation of 6beta-hydroxytestosterone from testosterone measured after 10 mins in presence of NADPH by LC-MS/MS analysis", "format": "ADME", "details": "read-out: INH"}, "[5]": {"biological_target": "T1, CREB-binding protein/Histone acetyltransferase p300", "assay": "Inhibition of CBP/EP300 in human MOLM16 cells assessed as decrease in MYC expression at 0.1 to 1 uM measured after 4 hrs Western blot analysis", "format": "cell-based"}, "[6]": {"biological_target": "T1, CREB-binding protein/Histone acetyltransferase p300", "assay": "Inhibition of CBP/EP300 in human KMS34 cells assessed as decrease in MYC expression at 5 uM measured after 4 hrs by RT-PCR analysis relative to DMSO control", "format": "cell-based"}, "[7]": {"assay": "Decrease in MYC mRNA expression in tumor of SCID beige mouse xenografted with human MOLM16 cells at 30 mg/kg, po administered twice daily via gavage as single dose measured after 2 hrs by RT-PCR analysis relative to control", "format": "functional, organism-based"}, "[8]": {"assay": "Oral bioavailability in nu/nu mouse at 100 mg/kg by LC-MS/MS analysis", "format": "ADME, organism-based", "details": "in vivo"}, "MOLM16 [9]": {"test_system": "MOLM16", "assay": "Antiproliferative activity against human MOLM16 cells measured after 6 days by CellTiter-Glo assay", "format": "functional, cell-based"}, "[10]": {"assay": "fCmax in nu/nu mouse at 100 mg/kg, po by LC-MS/MS analysis", "format": "ADME, organism-based", "details": "in vivo"}, "Cytochrome P450 1A2": {"biological_target": "Cytochrome P450 1A2 (Homo sapiens, UniProt P05177)", "assay": "Inhibition of CYP1A2 in human liver microsomes assessed as formation of acetaminophen from phenacetin measured after 30 mins in presence of NADPH by LC-MS/MS analysis", "format": "ADME", "details": "0.5 h"}, "Cytochrome P450 3A4 [11]": {"biological_target": "T2, Cytochrome P450 3A4", "assay": "Inhibition of CYP3A4 in human liver microsomes assessed as formation of 1-hydroxymidazolam from midazolam measured after 10 mins in presence of NADPH by LC-MS/MS analysis", "format": "ADME"}, "MOLM16 [12]": {"test_system": "MOLM16", "assay": "Antitumor activity against human MOLM16 cells xenografted in SCID beige mouse assessed as tumor growth inhibition compound administered through oral gavage twice daily for 21 days", "format": "functional, cell-based"}, "[13]": {"assay": "Decrease in MYC mRNA expression in tumor of SCID beige mouse xenografted with human MOLM16 cells at 10 mg/kg, po administered twice daily via gavage as single dose measured after 2 to 8 hrs by RT-PCR analysis", "format": "functional, organism-based"}, "KMS34": {"test_system": "KMS34", "assay": "Antiproliferative activity against human KMS34 cells measured after 6 days by CellTiter-Glo assay", "format": "functional, cell-based"}, "[14]": {"assay": "Time at which unbound drug level in SCID beige mouse tumor stays above cellular MYC EC90 at 10 mg/kg, po administered twice daily via gavage as single dose", "format": "ADME, organism-based", "details": "in vivo"}, "DOHH-2": {"test_system": "DOHH-2", "assay": "Antiproliferative activity against human DOHH2 cells measured after 6 days by CellTiter-Glo assay", "format": "functional, cell-based"}, "U-266": {"test_system": "U-266", "assay": "Antiproliferative activity against human U266B1 cells measured after 6 days by CellTiter-Glo assay", "format": "functional, cell-based"}, "[15]": {"biological_target": "T1, CREB-binding protein/Histone acetyltransferase p300", "assay": "Inhibition of CBP/EP300 in human MOLM16 cells assessed as suppression of BCL6 expression at 5 uM measured after 4 hrs by RT-PCR analysis relative to DMSO control", "format": "cell-based"}, "[16]": {"assay": "Cmax in nu/nu mouse at 100 mg/kg, po by LC-MS/MS analysis", "format": "ADME, organism-based", "set-up": "dose 100 mg/kg, route oral", "details": "in vivo"}, "[17]": {"biological_target": "T1, CREB-binding protein/Histone acetyltransferase p300", "assay": "Inhibition of CBP/EP300 in human HL60 cells assessed as decrease in MYC expression at 5 uM measured after 4 hrs by RT-PCR analysis relative to DMSO control", "format": "cell-based", "details": "HL-60"}, "[18]": {"biological_target": "T1, CREB-binding protein/Histone acetyltransferase p300", "assay": "Inhibition of CBP/EP300 in human MOLM16 cells assessed as suppression of BCL-XL expression at 5 uM measured after 4 hrs by RT-PCR analysis relative to DMSO control", "format": "cell-based"}, "KMS-11": {"test_system": "KMS-11", "assay": "Antiproliferative activity against human KMS11 cells measured after 6 days by CellTiter-Glo assay", "format": "functional, cell-based"}, "Cytochrome P450 2C9": {"biological_target": "Cytochrome P450 2C9 (Homo sapiens, UniProt P11712)", "assay": "Inhibition of CYP2C9 in human liver microsomes assessed as formation of 7-hydroxywarfarin from warfarin measured after 30 mins in presence of NADPH by LC-MS/MS analysis", "format": "ADME", "details": "0.5 h"}, "[19]": {"biological_target": "T1, CREB-binding protein/Histone acetyltransferase p300", "assay": "Inhibition of CBP/EP300 in human Pfeiffer cells assessed as decrease in MYC expression at 5 uM measured after 4 hrs by RT-PCR analysis relative to DMSO control", "format": "cell-based"}, "[20]": {"assay": "Protein binding in nu/nu mouse plasma at 5 uM measured after 4 hrs by LC-MS/MS analysis", "format": "ADME, cell-free", "details": "read-out: PPB (converted)"}, "[21]": {"biological_target": "T1, CREB-binding protein/Histone acetyltransferase p300", "assay": "Inhibition of CBP/EP300 in human MOLM16 cells assessed as suppression of MYB expression at 5 uM measured after 4 hrs by RT-PCR analysis relative to DMSO control", "format": "cell-based"}, "Kasumi 1": {"test_system": "Kasumi 1", "assay": "Antiproliferative activity against human Kasumi-1 cells measured after 6 days by CellTiter-Glo assay", "format": "functional, cell-based"}, "THP2": {"test_system": "THP2", "assay": "Antiproliferative activity against human THP2 cells measured after 6 days by CellTiter-Glo assay", "format": "functional, cell-based"}, "HL-60": {"test_system": "HL-60", "assay": "Antiproliferative activity against human HL60 cells measured after 6 days by CellTiter-Glo assay", "format": "functional, cell-based"}, "[22]": {"biological_target": "T1, CREB-binding protein/Histone acetyltransferase p300", "assay": "Inhibition of CBP/EP300 in human MOLM16 cells assessed as decrease in MYC expression measured after 4 hrs by RT-PCR analysis", "format": "cell-based"}, "Mus musculus [23]": {"test_system": "Mus musculus", "assay": "Toxicity in SCID beige mouse xenografted with human MOLM16 cells assessed as body weight loss at 12.5 to 50 mg/kg, po BID administered through gavage for 21 days", "format": "organism-based", "details": "in vivo"}, "EJM": {"test_system": "EJM", "assay": "Antiproliferative activity against human EJM cells measured after 6 days by CellTiter-Glo assay", "format": "functional, cell-based"}, "LP-1": {"test_system": "LP-1", "assay": "Antiproliferative activity against human LP-1 cells measured after 6 days by CellTiter-Glo assay", "format": "functional, cell-based"}, "Pfeiffer": {"test_system": "Pfeiffer", "assay": "Antiproliferative activity against human Pfeiffer cells measured after 6 days by CellTiter-Glo assay", "format": "functional, cell-based"}, "Mus musculus [24]": {"test_system": "Mus musculus", "assay": "Inhibition of MYC mRNA expression in SCID beige mouse xenografted with human MOLM16 cells assessed as MYC transcript level at 3 to 100 mg/kg, po administered twice daily via gavage as single dose measured after 24 hrs by RT-PCR analysis relative to control", "format": "functional", "set-up": "scale not given: the % may be the effect or the level left"}, "[25]": {"assay": "Apparent permeability of the compound across apical side to basolateral side in MDCK cells at 10 uM measured after 180 mins by LC-MS/MS analysis", "format": "ADME, cell-based, Canis lupus familiaris", "details": "dog"}, "[26]": {"biological_target": "T1, CREB-binding protein/Histone acetyltransferase p300", "assay": "Inhibition of CBP/EP300 in human MOLM16 cells assessed as suppression of CCND1 expression at 5 uM measured after 4 hrs by RT-PCR analysis relative to DMSO control", "format": "cell-based"}}, "note": "Active and inactive are the calls of the source. No cut-off for these calls is given here.", "data": [{"smiles": "CC(=O)N1CCc2c(c(Nc3ccc(-c4cnn(C)c4)cc3F)nn2[C@@H]2CCOC2)C1", "values": [{"measurement": "inhibition in vivo at 25 mg/kg", "setting": "[1]", "result": 65, "unit": "%"}, {"measurement": "inhibition", "setting": "[2]", "result": "Active"}, {"measurement": "clearance", "setting": "[3]", "result": 9.6, "unit": "mL/min/kg"}, {"measurement": "IC50", "setting": "Cytochrome P450 3A4 [4]", "result": "> 10", "unit": "µM"}, {"measurement": "inhibition", "setting": "[5]", "result": "Active"}, {"measurement": "inhibition", "setting": "[6]", "result": "Active"}, {"measurement": "inhibition", "setting": "[7]", "result": 78, "unit": "%"}, {"measurement": "bioavailability", "setting": "[8]", "result": 100, "unit": "%"}, {"measurement": "Activity", "setting": "MOLM16 [9]", "result": "Active"}, {"measurement": "fCmax", "setting": "[10]", "result": 26, "unit": "µM"}, {"measurement": "INH", "setting": "Cytochrome P450 1A2", "result": "> 10", "unit": "µM"}, {"measurement": "INH", "setting": "Cytochrome P450 3A4 [11]", "result": "> 10", "unit": "µM"}, {"measurement": "TGI", "setting": "MOLM16 [12]", "result": "Dose-dependent effect"}, {"measurement": "inhibition", "setting": "[13]", "result": "Active"}, {"measurement": "Activity", "setting": "KMS34", "result": "Active"}, {"measurement": "Time", "setting": "[14]", "result": 24, "unit": "h"}, {"measurement": "Activity", "setting": "DOHH-2", "result": "Active"}, {"measurement": "Activity", "setting": "U-266", "result": "Active"}, {"measurement": "inhibition", "setting": "[15]", "result": "Active"}, {"measurement": "Cmax", "setting": "[16]", "result": 163, "unit": "µM"}, {"measurement": "inhibition", "setting": "[17]", "result": "Active"}, {"measurement": "inhibition", "setting": "[18]", "result": "Active"}, {"measurement": "Activity", "setting": "KMS-11", "result": "Active"}, {"measurement": "INH", "setting": "Cytochrome P450 2C9", "result": "> 10", "unit": "µM"}, {"measurement": "inhibition", "setting": "[19]", "result": "Active"}, {"measurement": "fraction unbound at 4 h, 5 µM", "setting": "[20]", "result": 0.16}, {"measurement": "inhibition", "setting": "[21]", "result": "Active"}, {"measurement": "Activity", "setting": "Kasumi 1", "result": "Active"}, {"measurement": "Activity", "setting": "THP2", "result": "Active"}, {"measurement": "Activity", "setting": "HL-60", "result": "Active"}, {"measurement": "EC90", "setting": "[22]", "result": 0.621, "unit": "µM"}, {"measurement": "Activity", "setting": "Mus musculus [23]", "result": 7.4, "unit": "%"}, {"measurement": "Activity", "setting": "EJM", "result": "Active"}, {"measurement": "Activity", "setting": "LP-1", "result": "Active"}, {"measurement": "Activity", "setting": "Pfeiffer", "result": "Active"}, {"measurement": "Activity", "setting": "Mus musculus [24]", "result": "150 - 200%"}, {"measurement": "Papp A→B at 3 h, 10 µM", "setting": "[25]", "result": 15, "unit": "×10⁻⁶ cm/s"}, {"measurement": "inhibition", "setting": "[26]", "result": "Active"}]}]}
